Where “and” joins values, the source holds several entries; their conditions need not be identical. Identical values can stand only once.
Experiment: mn = molality of the nth substance listed, in mol/kg
Settings: 101 kPa, Liquid; for speed of sound: Sing-around technique in a fixed-path interferometer; for mass density: Vibrating tube method

CC(=O)NCC(=O)O [N-acetylglycine] + O
Settings | mass density, 288.15 K | mass density, 293.15 K | mass density, 298.15 K | mass density, 303.15 K | speed of sound, 288.15 K | speed of sound, 293.15 K | speed of sound, 298.15 K [m/s] | speed of sound, 303.15 K
m1 = 0.085 | 1001.93 kg/m3 | 1000.99 kg/m3 | 999.799 kg/m3 | 998.366 kg/m3 | 1470.3 m/s | 1485.9 m/s | 1499.7 | 1511.7 m/s
m1 = 0.18 | 1005.02 kg/m3 and 1004.89 kg/m3 | 1004.02 kg/m3 and 1003.9 kg/m3 | 1002.78 kg/m3 and 1002.66 kg/m3 | 1001.3 kg/m3 and 1001.18 kg/m3 | 1475.4 m/s and 1470.6 m/s | 1490.5 m/s and 1490.7 m/s | 1504 | 1515.6 m/s and 1515.5 m/s

O=C([O-])CC(O)(CC(=O)[O-])C(=O)[O-].[Na+].[Na+].[Na+] [trisodium citrate] + O
Settings | mass density, 288.15 K [kg/m3] | mass density, 293.15 K [kg/m3] | mass density, 298.15 K [kg/m3] | mass density, 303.15 K [kg/m3] | speed of sound, 288.15 K [m/s] | speed of sound, 293.15 K [m/s] | speed of sound, 298.15 K [m/s] | speed of sound, 303.15 K [m/s]
m1 = 0.00247 | 999.597 | 998.701 | 997.537 | 996.131 | 1467.4 | 1483 | 1497.2 | 1509.6
m1 = 0.04871 | 1008.4 | 1007.39 | 1006.09 | 1004.6 | 1479.1 | 1493.7 | 1507.2 | 1519.6
m1 = 0.09738 | 1017.15 | 1016.08 | 1014.65 | 1013.09 | 1488.8 | 1503.5 | 1516.8 | 1529
m1 = 0.201 | 1034.85 | 1033.45 | 1031.8 | 1030.15 | 1509.2 | 1523.4 | 1536.7 | 1547.8
m1 = 0.2898 | 1049.56 | 1047.86 | 1046.01 | 1044.34 | 1526.1 | 1540 | 1552.4 | 1562.6
m1 = 0.3899 | 1065.78 | 1063.45 | 1061.6 | 1059.7 | 1545.2 | 1558.9 | 1570.2 | 1579
m1 = 0.4966 | 1082.16 | 1079.75 | 1077.6 | 1075.59 | 1565.2 | 1578 | 1587.1 | 1596.3
m1 = 0.6007 | 1097.37 | 1094.95 | 1092.45 | 1090.27 | 1583.7 | 1595 | 1603.5 | 1612.2
m1 = 0.7036 | 1111.65 | 1109.41 | 1106.71 | 1104.4 | 1601 | 1611.8 | 1617.6 | 1626.5
m1 = 0.7698 | 1120.84 | 1118.51 | 1115.58 | 1113.15 | 1612.3 | 1621.3 | 1628.1 | 1635.6
m1 = 0.9013 | 1138.29 | 1135.53 | 1132.31 | 1129.69 | 1636.1 | 1643.5 | 1646 | 1652.1

— the NIST ThermoML archive (doi:10.1016/j.jct.2012.12.022)
